The source made the active and inactive calls. The calls are words filed in the database; no cut-off is given here.
Experiments:
Mus musculus [1] = assay: Toxicity in mouse allografted with mouse LLC cells at 4 mg/kg, ip qd administered from day 5 to 15 post sc tumor-implantation; assay type: organism-based; design: dose 4 mg/kg; details: in vivo
[2] = system: Lewis lung carcinoma cell line; assay: Antitumor activity against mouse LLC cells allografted in mouse assessed as mouse survival at 1 mg/kg, ip qd administered from day 5 to 15 post sc tumor-implantation relative to control; assay type: functional; details: route subcutaneous
[3] = system: Lewis lung carcinoma cell line; assay: Antitumor activity against mouse LLC cells allografted in mouse assessed as change in body weight at 2 mg/kg, ip qd administered from day 5 to 15 post sc tumor-implantation measured on day 5 relative to control; assay type: functional; details: route subcutaneous
[4] = system: Lewis lung carcinoma cell line; assay: Antitumor activity against mouse LLC cells allografted in mouse assessed as change in body weight at 1 mg/kg, ip qd administered from day 5 to 15 post sc tumor-implantation measured on day 5 relative to control; assay type: functional; details: route subcutaneous
[5] = Therapeutic ratio, ratio of highest active dose to lowest active for antitumor activity against in ip dosed mouse allografted with mouse P388 cells; assay type: ADME, organism-based; details: in vivo, read-out: TI
[6] = Therapeutic ratio, ratio of highest active dose to lowest active for antitumor activity against in ip dosed mouse allografted with mouse B16 cells; assay type: ADME, organism-based; details: in vivo, read-out: TI
L1210 [7] = assay: Antitumor activity against mouse L1210 cells allografted in mouse assessed as mouse survival at 3.12 mg/kg, ip qd administered from day 1 to 9 post intracerebral tumor-implantation relative to control; assay type: functional; details: route intraperitoneal
L1210 [8] = assay: Antitumor activity against mouse L1210 cells allografted in mouse assessed as mouse survival at 1.56 mg/kg, ip qd administered from day 1 to 9 post intracerebral tumor-implantation relative to control; assay type: functional; details: route intraperitoneal
L1210 [9] = assay: Antitumor activity against mouse L1210 cells allografted in mouse assessed as change in body weight at 6.25 mg/kg, ip qd administered from day 1 to 9 post intracerebral tumor-implantation measured on day 5 relative to control; assay type: functional; details: route intraperitoneal
L1210 [10] = assay: Antitumor activity against mouse L1210 cells allografted in mouse assessed as change in body weight at 3.12 mg/kg, ip qd administered from day 1 to 9 post intracerebral tumor-implantation measured on day 5 relative to control; assay type: functional; details: route intraperitoneal
L1210 [11] = assay: Antitumor activity against mouse L1210 cells allografted in mouse assessed as change in body weight at 0.78 mg/kg, ip qd administered from day 1 to 9 post intracerebral tumor-implantation measured on day 5 relative to control; assay type: functional; details: route intraperitoneal
Mus musculus [12] = assay: Toxicity in mouse allografted with mouse P388 cells at 6.25 mg/kg, ip qd administered from day 1 to 9 post intracerebral tumor-implantation; assay type: organism-based; design: dose 6.25 mg/kg, route intraperitoneal; details: in vivo
P388 [13] = assay: Antitumor activity against mouse P388 cells allografted in mouse assessed as change in body weight at 0.39 mg/kg, ip qd administered from day 1 to 9 post intracerebral tumor-implantation measured on day 5 relative to control; assay type: functional; details: route intraperitoneal
Mus musculus [14] = assay: Toxicity in mouse allografted with mouse ependymoblastoma cells at 8 mg/kg, ip qd administered from day 1 to 5 post intracerebral tumor-implantation; assay type: organism-based; design: dose 8 mg/kg, route intraperitoneal; details: in vivo
[15] = Antitumor activity against mouse ependymoblastoma cells allografted in mouse assessed as mouse survival at 1 mg/kg, ip qd administered from day 1 to 5 post intracerebral tumor-implantation relative to control; assay type: functional; details: route intraperitoneal
[16] = Antitumor activity against mouse ependymoblastoma cells allografted in mouse assessed as change in body weight at 1 mg/kg, ip qd administered from day 1 to 5 post intracerebral tumor-implantation measured on day 5 relative to control; assay type: functional; details: route intraperitoneal
[17] = Antitumor activity against mouse ependymoblastoma cells allografted in mouse assessed as change in body weight at 8 mg/kg, ip qd administered from day 1 to 5 post intracerebral tumor-implantation measured on day 5 relative to control; assay type: functional; details: route intraperitoneal
[18] = Antitumor activity against mouse ependymoblastoma cells allografted in mouse assessed as change in body weight at 0.5 mg/kg, ip qd administered from day 1 to 5 post intracerebral tumor-implantation measured on day 5 relative to control; assay type: functional; details: route intraperitoneal
[19] = Antitumor activity against mouse ependymoblastoma cells allografted in mouse assessed as change in body weight at 0.25 mg/kg, ip qd administered from day 1 to 5 post intracerebral tumor-implantation measured on day 5 relative to control; assay type: functional; details: route intraperitoneal
Mus musculus [20] = assay: Antitumor activity against mouse ependymoblastoma cells allografted in mouse assessed as cure rate at 2 mg/kg, ip qd administered from day 1 to 5 post intracerebral tumor-implantation measured on day 99; assay type: functional, organism-based; design: dose 2 mg/kg
L1210 [21] = assay: Antitumor activity against mouse L1210 cells allografted in ip dosed mouse assessed as optimum dose administered qd on day 1, 5 and 9; assay type: functional
L1210 [22] = assay: Antitumor activity against mouse L1210 cells allografted in ip dosed mouse at optimum dose administered qd on day 1, 5 and 9 relative to control; assay type: functional
L1210 [23] = assay: Antitumor activity against mouse L1210 cells allografted in mouse assessed as mouse survival at 6.25 mg/kg, ip qd administered from day 1 to 9 post ip tumor-implantation relative to control; assay type: functional; details: route intraperitoneal
L1210 [24] = assay: Antitumor activity against mouse L1210 cells allografted in mouse assessed as mouse survival at 3.12 mg/kg, ip qd administered from day 1 to 9 post ip tumor-implantation relative to control; assay type: functional; details: route intraperitoneal
L1210 [25] = assay: Antitumor activity against mouse L1210 cells allografted in mouse assessed as change in body weight at 3.12 mg/kg, ip qd administered from day 1 to 9 post ip tumor-implantation measured on day 5 relative to control; assay type: functional; details: route intraperitoneal
L1210 [26] = assay: Antitumor activity against mouse L1210 cells allografted in mouse assessed as change in body weight at 2 mg/kg, ip qd administered from day 1 to 9 post ip tumor-implantation measured on day 5 relative to control; assay type: functional; details: route intraperitoneal
L1210 [27] = assay: Antitumor activity against mouse L1210 cells allografted in mouse assessed as change in body weight at 1.3 mg/kg, ip qd administered from day 1 to 9 post ip tumor-implantation measured on day 5 relative to control; assay type: functional; details: route intraperitoneal
P388 [28] = assay: Antitumor activity against mouse P388 cells allografted in mouse assessed as mouse survival at 3.12 mg/kg, ip qd administered from day 1 to 9 post ip tumor-implantation relative to control; assay type: functional; details: route intraperitoneal
P388 [29] = assay: Antitumor activity against mouse P388 cells allografted in mouse assessed as change in body weight at 1.56 mg/kg, ip qd administered from day 1 to 9 post ip tumor-implantation measured on day 5 relative to control; assay type: functional; details: route intraperitoneal
P388 [30] = assay: Antitumor activity against mouse P388 cells allografted in mouse assessed as change in body weight at 0.78 mg/kg, ip qd administered from day 1 to 9 post ip tumor-implantation measured on day 5 relative to control; assay type: functional; details: route intraperitoneal
B16 [31] = assay: Antitumor activity against mouse B16 cells allografted in mouse assessed as mouse survival at 1.56 mg/kg, ip qd administered from day 1 to 9 post ip tumor-implantation relative to control; assay type: functional; details: route intraperitoneal
B16 [32] = assay: Antitumor activity against mouse B16 cells allografted in mouse assessed as mouse survival at 0.78 mg/kg, ip qd administered from day 1 to 9 post ip tumor-implantation relative to control; assay type: functional; details: route intraperitoneal
B16 [33] = assay: Antitumor activity against mouse B16 cells allografted in mouse assessed as change in body weight at 6.25 mg/kg, ip qd administered from day 1 to 9 post ip tumor-implantation measured on day 5 relative to control; assay type: functional; details: route intraperitoneal

In the case of `CCOC(=O)NC1=C(N2CC2)C(=O)C(NC(=O)OCC)=C(N2CC2)C1=O` [DIAZIQUONE], the Activity (Mus musculus [1]) is reported as “Toxic”, the T/C [2] is reported as 89% and the Activity [3] is reported as 0.3 g. For the same molecule, the Activity [4] was -0.1 g, the selectivity ratio [5] was 3 and the selectivity ratio [6] was 3. It also gave a T/C (L1210 [7]) of 179%, a T/C (L1210 [8]) of 146% and an Activity (L1210 [9]) of -2.8 g. The Activity (L1210 [10]) was -2.1 g, the Activity (L1210 [11]) was -0.5 g and the Activity (Mus musculus [12]) was “Toxic”. For the same molecule, the Activity (P388 [13]) was -0.7 g, the Activity (Mus musculus [14]) was “Toxic” and the T/C [15] was 226%. It also gave an Activity [16] of -2.1 g, an Activity [17] of -5 g and an Activity [18] of -1.8 g. For the same molecule, the Activity [19] was -1.5 g, the Activity (Mus musculus [20]) was “Active” and the Activity (L1210 [21]) was 6.25 mg/kg. For the same molecule, the T/C (L1210 [22]) was 154%, the T/C (L1210 [23]) was 127% and the T/C (L1210 [24]) was 128%. It also gave an Activity (L1210 [25]) of -4.1 g, an Activity (L1210 [26]) of -3.8 g and an Activity (L1210 [27]) of -2.3 g. The T/C (P388 [28]) was 100%, the Activity (P388 [29]) was -4 g and the Activity (P388 [30]) was -2.4 g. It also gave a T/C (B16 [31]) of 138%, a T/C (B16 [32]) of 113% and an Activity (B16 [33]) of -4.4 g.
